# Test results from ChEMBL document CHEMBL1201861, “Genomics of Drug Sensitity in Cancer screening data, Wellcome Trust Sanger Institute”.
# What was measured:
# Assay in all cases: cells
# Assay type in all cases: functional, cell-based, Homo sapiens
# MHH-NB-11 = test system: MHH-NB-11;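 further: growth inhibition of human MHH-NB-11 cells, read out by a cell viability assay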
# Description: SANGER: Inhibition of human MHH-NB-11 cell growth in a cell viability assay.
# D283 Med = test system: D283 Med
# Description: SANGER: Inhibition of human D-283MED cell growth in a cell viability assay.
# GT3TKB = test system: GT3TKB;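 further: growth inhibition of the cell line, read out with a cell viability assay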
# Description: SANGER: Inhibition of human GT3TKB cell growth in a cell viability assay.
# HT = test system: HT
# Description: SANGER: Inhibition of human HT cell growth in a cell viability assay.
# NCI-H1092 = test system: NCI-H1092;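 further: cell growth inhibition measured with a cell viability assay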
# Description: SANGER: Inhibition of human NCI-H1092 cell growth in a cell viability assay.
# KARPAS-299 = test system: KARPAS-299
# Description: SANGER: Inhibition of human KARPAS-299 cell growth in a cell viability assay.
# HCC 2998 = test system: HCC 2998;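 further: growth inhibition of human HCC2998 cells, measured with a cell viability read-out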
# Description: SANGER: Inhibition of human HCC2998 cell growth in a cell viability assay.
# ES3 = test system: ES3;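 further: growth inhibition of ES3 cells, read out with a cell viability assay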
# Description: SANGER: Inhibition of human ES3 cell growth in a cell viability assay.
# ES8 = test system: ES8;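 further: growth inhibition of human ES8 cells, read out with a cell viability assay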
# Description: SANGER: Inhibition of human ES8 cell growth in a cell viability assay.
# NB10 = test system: NB10;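 further: growth inhibition of NB10 cells, read out by a cell viability assay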
# Description: SANGER: Inhibition of human NB10 cell growth in a cell viability assay.
# NCI-H1155 = test system: NCI-H1155;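 further: cell growth inhibition measured by a viability assay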
# Description: SANGER: Inhibition of human NCI-H1155 cell growth in a cell viability assay.
# LC-2-ad = test system: LC-2-ad;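 further: growth inhibition of human LC-2-ad cells, read out with a cell viability assay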
# Description: SANGER: Inhibition of human LC-2-ad cell growth in a cell viability assay.
# JVM-3 = test system: JVM-3;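 further: growth inhibition of human JVM-3 cells, read out with a cell viability assay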
# Description: SANGER: Inhibition of human JVM-3 cell growth in a cell viability assay.
# NCI-H69 = test system: NCI-H69;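 further: growth inhibition of the cell line, read out with a cell viability assay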
# Description: SANGER: Inhibition of human NCI-H69 cell growth in a cell viability assay.
# KLE = test system: KLE;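 further: growth inhibition of human KLE cells, read out with a cell viability assay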
# Description: SANGER: Inhibition of human KLE cell growth in a cell viability assay.
# HOP-62 = test system: HOP-62;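 further: cell growth inhibition determined with a viability assay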
# Description: SANGER: Inhibition of human HOP-62 cell growth in a cell viability assay.
# NCI-H1648 = test system: NCI-H1648;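 further: cell viability assay measuring inhibition of NCI-H1648 cell growth, from the Sanger screening data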
# Description: SANGER: Inhibition of human NCI-H1648 cell growth in a cell viability assay.
# TK-10 = test system: TK-10;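 further: growth inhibition of TK-10 cells, read out in a cell viability assay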
# Description: SANGER: Inhibition of human TK10 cell growth in a cell viability assay.
# BE-13 = test system: BE-13;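 further: growth inhibition of human BE-13 cells, measured with a cell viability assay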
# Description: SANGER: Inhibition of human BE-13 cell growth in a cell viability assay.
# SK-PN-DW = test system: SK-PN-DW;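 further: growth inhibition measured with a viability assay on these cells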
# Description: SANGER: Inhibition of human SK-PN-DW cell growth in a cell viability assay.
# KMOE-2 = test system: KMOE-2;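 further: growth inhibition of human KMOE-2 cells, read out with a cell viability assay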
# Description: SANGER: Inhibition of human KMOE-2 cell growth in a cell viability assay.
# D-502MG = test system: D-502MG
# Description: SANGER: Inhibition of human D-502MG cell growth in a cell viability assay.
# ACN = test system: ACN;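 further: growth inhibition of the human ACN cell line, read out via cell viability testing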
# Description: SANGER: Inhibition of human ACN cell growth in a cell viability assay.
# KM-H2 = test system: KM-H2;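 further: growth inhibition of KM-H2 cells, read out by a cell viability assay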
# Description: SANGER: Inhibition of human KM-H2 cell growth in a cell viability assay.
# MMAC-SF = test system: MMAC-SF;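 further: growth inhibition of human MMAC-SF cells, read out with a cell viability assay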
# Description: SANGER: Inhibition of human MMAC-SF cell growth in a cell viability assay.
# IST-MEL1 = test system: IST-MEL1;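 further: growth inhibition of the cell line, read out with a cell viability assay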
# Description: SANGER: Inhibition of human IST-MEL1 cell growth in a cell viability assay.
# NEC8 = test system: NEC8;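 further: growth inhibition of human NEC8 cells, read out by a cell viability assay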
# Description: SANGER: Inhibition of human NEC8 cell growth in a cell viability assay.
# EW-18 = test system: EW-18;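 further: growth inhibition of EW-18 cells, read out by a cell viability assay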
# Description: SANGER: Inhibition of human EW-18 cell growth in a cell viability assay.
# EC-GI-10 = test system: EC-GI-10
# Description: SANGER: Inhibition of human EC-GI-10 cell growth in a cell viability assay.
# RS4-11 = test system: RS4-11;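 further: growth inhibition of RS4-11 cells, read out by a cell viability assay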
# Description: SANGER: Inhibition of human RS4-11 cell growth in a cell viability assay.
# COLO-800 = test system: COLO-800;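 further: growth inhibition of COLO-800 cells, read out with a cell viability assay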
# Description: SANGER: Inhibition of human COLO-800 cell growth in a cell viability assay.
# IST-MES1 = test system: IST-MES1;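 further: growth inhibition of IST-MES1 cells, measured with a cell viability assay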
# Description: SANGER: Inhibition of human IST-MES1 cell growth in a cell viability assay.
# LB1047-RCC = test system: LB1047-RCC;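 further: inhibition of cell growth, determined with a cell viability assay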
# Description: SANGER: Inhibition of human LB1047-RCC cell growth in a cell viability assay.
# NCI-H1770 = test system: NCI-H1770;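 further: growth inhibition of NCI-H1770 cells determined with a viability readout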
# Description: SANGER: Inhibition of human NCI-H1770 cell growth in a cell viability assay.
# KS-1 = test system: KS-1;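 further: growth inhibition of KS-1 cells, read out with a cell viability assay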
# Description: SANGER: Inhibition of human KS-1 cell growth in a cell viability assay.
# SK-LMS-1 = test system: SK-LMS-1;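 further: growth inhibition of human SK-LMS-1 cells, read out with a cell viability assay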
# Description: SANGER: Inhibition of human SK-LMS-1 cell growth in a cell viability assay.
# ATN-1 = test system: ATN-1;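 further: growth inhibition of human ATN-1 cells, read out with a cell viability assay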
# Description: SANGER: Inhibition of human ATN-1 cell growth in a cell viability assay.
# CP66-MEL = test system: CP66-MEL;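 further: growth inhibition of CP66-MEL cells determined in a cell viability assay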
# Description: SANGER: Inhibition of human CP66-MEL cell growth in a cell viability assay.
# NCI-H747 = test system: NCI-H747;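 further: growth inhibition of human NCI-H747 cells, read out by a cell viability assay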
# Description: SANGER: Inhibition of human NCI-H747 cell growth in a cell viability assay.
# KNS-81-FD = test system: KNS-81-FD;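 further: growth inhibition of KNS-81-FD cells, read out with a cell viability assay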
# Description: SANGER: Inhibition of human KNS-81-FD cell growth in a cell viability assay.
# LS-513 = test system: LS-513
# Description: SANGER: Inhibition of human LS-513 cell growth in a cell viability assay.
# CCRF-CEM = test system: CCRF-CEM;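 further: inhibition of CCRF-CEM cell growth, measured by a cell viability assay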
# Description: SANGER: Inhibition of human CCRF-CEM cell growth in a cell viability assay.
# RKO = test system: RKO;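 further: growth inhibition of human RKO cells, read out with a cell viability assay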
# Description: SANGER: Inhibition of human RKO cell growth in a cell viability assay.
# BB65-RCC = test system: BB65-RCC;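 further: growth inhibition of the cell line, measured with a cell viability assay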
# Description: SANGER: Inhibition of human BB65-RCC cell growth in a cell viability assay.
# EW-3 = test system: EW-3;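 further: cell viability assay read-out, IC50 reflects inhibition of growth of the EW-3 cells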
# Description: SANGER: Inhibition of human EW-3 cell growth in a cell viability assay.
# OMC-1 = test system: OMC-1;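 further: growth inhibition of the OMC-1 cell line, measured by a cell viability assay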
# Description: SANGER: Inhibition of human OMC-1 cell growth in a cell viability assay.
# HDLM-2 = test system: HDLM-2;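 further: cell viability assay measuring suppression of HDLM-2 proliferation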
# Description: SANGER: Inhibition of human HDLM-2 cell growth in a cell viability assay.
# LB373-MEL-D = test system: LB373-MEL-D;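 further: growth inhibition of the cell line, read out in a cell viability assay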
# Description: SANGER: Inhibition of human LB373-MEL-D cell growth in a cell viability assay.
# DMS-79 = test system: DMS-79;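 further: growth inhibition measured with a cell viability assay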
# Description: SANGER: Inhibition of human DMS-79 cell growth in a cell viability assay.
compound,measurement,setting,value
COc1cccc2c1C(=O)c1c(O)c3c(c(O)c1C2=O)C[C@@](O)(C(=O)CO)C[C@@H]3O[C@H]1C[C@H](N)[C@H](O)[C@H](C)O1 [DOXORUBICIN],IC50,"MHH-NB-11; Homo sapiens, MHH-NB-11",0.22 µM
same,IC50,"D283 Med; Homo sapiens, D283 Med",0.25 µM
same,IC50,"GT3TKB; Homo sapiens, GT3TKB",0.0672 µM
same,IC50,"HT; Homo sapiens, HT",0.405 µM
same,IC50,"NCI-H1092; Homo sapiens, NCI-H1092",0.738 µM
same,IC50,"KARPAS-299; Homo sapiens, KARPAS-299",> 1.02 µM
same,IC50,"HCC 2998; Homo sapiens, HCC 2998",0.0174 µM
same,IC50,"ES3; Homo sapiens, ES3",0.0895 µM
same,IC50,"ES8; Homo sapiens, ES8",0.0211 µM
same,IC50,"NB10; Homo sapiens, NB10",0.188 µM
same,IC50,"NCI-H1155; Homo sapiens, NCI-H1155",0.58 µM
same,IC50,"LC-2-ad; Homo sapiens, LC-2-ad",0.00507 µM
same,IC50,"JVM-3; Homo sapiens, JVM-3",> 1.02 µM
same,IC50,"NCI-H69; Homo sapiens, NCI-H69",0.569 µM
same,IC50,"KLE; Homo sapiens, KLE",0.175 µM
same,IC50,"HOP-62; Homo sapiens, HOP-62",0.0359 µM
same,IC50,"NCI-H1648; Homo sapiens, NCI-H1648",0.132 µM
same,IC50,"TK-10; Homo sapiens, TK-10",0.115 µM
same,IC50,"BE-13; Homo sapiens, BE-13",0.051 µM
same,IC50,"SK-PN-DW; Homo sapiens, SK-PN-DW",0.0257 µM
same,IC50,"KMOE-2; Homo sapiens, KMOE-2",0.576 µM
same,IC50,"D-502MG; Homo sapiens, D-502MG",> 1.02 µM
same,IC50,"ACN; Homo sapiens, ACN",0.0311 µM
same,IC50,"KM-H2; Homo sapiens, KM-H2",0.0907 µM
same,IC50,"MMAC-SF; Homo sapiens, MMAC-SF",0.106 µM
same,IC50,"IST-MEL1; Homo sapiens, IST-MEL1",0.0448 µM
same,IC50,"NEC8; Homo sapiens, NEC8",0.0336 µM
same,IC50,"EW-18; Homo sapiens, EW-18",0.251 µM
same,IC50,"EC-GI-10; Homo sapiens, EC-GI-10",> 1.02 µM
same,IC50,"RS4-11; Homo sapiens, RS4-11",0.0191 µM
same,IC50,"COLO-800; Homo sapiens, COLO-800",0.172 µM
same,IC50,"IST-MES1; Homo sapiens, IST-MES1",0.323 µM
same,IC50,"LB1047-RCC; Homo sapiens, LB1047-RCC",0.036 µM
same,IC50,"NCI-H1770; Homo sapiens, NCI-H1770",0.133 µM
same,IC50,"KS-1; Homo sapiens, KS-1",0.00344 µM
same,IC50,"SK-LMS-1; Homo sapiens, SK-LMS-1",0.0532 µM
same,IC50,"ATN-1; Homo sapiens, ATN-1",0.128 µM
same,IC50,"CP66-MEL; Homo sapiens, CP66-MEL",> 1.02 µM
same,IC50,"NCI-H747; Homo sapiens, NCI-H747",0.135 µM
same,IC50,"KNS-81-FD; Homo sapiens, KNS-81-FD",0.16 µM
same,IC50,"LS-513; Homo sapiens, LS-513",> 1.02 µM
same,IC50,"CCRF-CEM; Homo sapiens, CCRF-CEM",0.0245 µM
same,IC50,"RKO; Homo sapiens, RKO",0.0223 µM
same,IC50,"BB65-RCC; Homo sapiens, BB65-RCC",0.149 µM
same,IC50,"EW-3; Homo sapiens, EW-3",0.28 µM
same,IC50,"OMC-1; Homo sapiens, OMC-1",0.172 µM
same,IC50,"HDLM-2; Homo sapiens, HDLM-2",0.569 µM
same,IC50,"LB373-MEL-D; Homo sapiens, LB373-MEL-D",0.345 µM
same,IC50,"DMS-79; Homo sapiens, DMS-79",> 1.02 µM
BLEOMYCIN,IC50,MHH-NB-11; mhh-nb-11,2.01 µM
same,IC50,D283 Med; d283 med,3.81 µM
same,IC50,GT3TKB; gt3tkb,0.00685 µM
same,IC50,HT; ht,5.56 µM
same,IC50,NCI-H1092; nci-h1092,160 µM
same,IC50,KARPAS-299; karpas-299,27.2 µM
same,IC50,HCC 2998; hcc 2998,0.00659 µM
same,IC50,ES3; es3,1.61 µM
same,IC50,ES8; es8,1.4 µM
same,IC50,NB10; nb10,13.8 µM
same,IC50,NCI-H1155; nci-h1155,73.2 µM
same,IC50,LC-2-ad; lc-2-ad,0.0804 µM
same,IC50,JVM-3; jvm-3,429 µM
same,IC50,NCI-H69; nci-h69,104 µM
same,IC50,KLE; kle,21.2 µM
same,IC50,HOP-62; hop-62,0.00413 µM
same,IC50,NCI-H1648; nci-h1648,20.3 µM
same,IC50,TK-10; tk-10,0.999 µM
same,IC50,BE-13; be-13,0.399 µM
same,IC50,SK-PN-DW; sk-pn-dw,1.45 µM
same,IC50,KMOE-2; kmoe-2,544 µM
same,IC50,D-502MG; d-502mg,1010 µM
same,IC50,ACN; acn,0.808 µM
same,IC50,KM-H2; km-h2,6.97 µM
same,IC50,MMAC-SF; mmac-sf,21.3 µM
same,IC50,IST-MEL1; ist-mel1,0.28 µM
same,IC50,NEC8; nec8,0.0269 µM
same,IC50,EW-18; ew-18,75.8 µM
same,IC50,EC-GI-10; ec-gi-10,305 µM
same,IC50,RS4-11; rs4-11,0.00164 µM
same,IC50,COLO-800; colo-800,2.21 µM
same,IC50,IST-MES1; ist-mes1,206 µM
same,IC50,LB1047-RCC; lb1047-rcc,0.0325 µM
same,IC50,NCI-H1770; nci-h1770,5.29 µM
same,IC50,KS-1; ks-1,0.0108 µM
same,IC50,SK-LMS-1; sk-lms-1,2.66 µM
same,IC50,ATN-1; atn-1,18.9 µM
same,IC50,CP66-MEL; cp66-mel,957 µM
same,IC50,NCI-H747; nci-h747,1.21 µM
same,IC50,KNS-81-FD; kns-81-fd,664 µM
same,IC50,LS-513; ls-513,29 µM
same,IC50,CCRF-CEM; ccrf-cem,0.0787 µM
same,IC50,RKO; rko,0.524 µM
same,IC50,BB65-RCC; bb65-rcc,21.4 µM
same,IC50,EW-3; ew-3,18.5 µM
same,IC50,OMC-1; omc-1,11.9 µM
same,IC50,HDLM-2; hdlm-2,14.3 µM
same,IC50,LB373-MEL-D; lb373-mel-d,56.4 µM
same,IC50,DMS-79; dms-79,325 µM
O=C(O)c1ccc(-c2c[nH]c3ncc(-c4ccccc4)cc23)cc1C1CCCC1 [GSK-650394],IC50,"MHH-NB-11; Homo sapiens, MHH-NB-11",> 16 µM
same,IC50,"D283 Med; Homo sapiens, D283 Med",> 16 µM
same,IC50,"GT3TKB; Homo sapiens, GT3TKB",> 16 µM
same,IC50,"HT; Homo sapiens, HT",> 16 µM
same,IC50,"NCI-H1092; Homo sapiens, NCI-H1092",> 16 µM
same,IC50,"KARPAS-299; Homo sapiens, KARPAS-299",> 16 µM
same,IC50,"HCC 2998; Homo sapiens, HCC 2998",> 16 µM
same,IC50,"ES3; Homo sapiens, ES3",> 16 µM
same,IC50,"ES8; Homo sapiens, ES8",7.13 µM
same,IC50,"NB10; Homo sapiens, NB10",> 16 µM
same,IC50,"NCI-H1155; Homo sapiens, NCI-H1155",> 16 µM
same,IC50,"LC-2-ad; Homo sapiens, LC-2-ad",> 16 µM
same,IC50,"JVM-3; Homo sapiens, JVM-3",> 16 µM
same,IC50,"NCI-H69; Homo sapiens, NCI-H69",7.67 µM
same,IC50,"KLE; Homo sapiens, KLE",> 16 µM
same,IC50,"HOP-62; Homo sapiens, HOP-62",> 16 µM
same,IC50,"NCI-H1648; Homo sapiens, NCI-H1648",> 16 µM
same,IC50,"TK-10; Homo sapiens, TK-10",> 16 µM
same,IC50,"BE-13; Homo sapiens, BE-13",> 16 µM
same,IC50,"SK-PN-DW; Homo sapiens, SK-PN-DW",14.2 µM
same,IC50,"KMOE-2; Homo sapiens, KMOE-2",> 16 µM
same,IC50,"D-502MG; Homo sapiens, D-502MG",> 16 µM
same,IC50,"ACN; Homo sapiens, ACN",> 16 µM
same,IC50,"KM-H2; Homo sapiens, KM-H2",> 16 µM
same,IC50,"MMAC-SF; Homo sapiens, MMAC-SF",> 16 µM
same,IC50,"IST-MEL1; Homo sapiens, IST-MEL1",> 16 µM
same,IC50,"NEC8; Homo sapiens, NEC8",> 16 µM
same,IC50,"EW-18; Homo sapiens, EW-18",> 16 µM
same,IC50,"EC-GI-10; Homo sapiens, EC-GI-10",> 16 µM
same,IC50,"RS4-11; Homo sapiens, RS4-11",8.96 µM
same,IC50,"COLO-800; Homo sapiens, COLO-800",> 16 µM
same,IC50,"IST-MES1; Homo sapiens, IST-MES1",> 16 µM
same,IC50,"LB1047-RCC; Homo sapiens, LB1047-RCC",6.2 µM
same,IC50,"NCI-H1770; Homo sapiens, NCI-H1770",10 µM
same,IC50,"KS-1; Homo sapiens, KS-1",> 16 µM
same,IC50,"SK-LMS-1; Homo sapiens, SK-LMS-1",5.38 µM
same,IC50,"ATN-1; Homo sapiens, ATN-1",> 16 µM
same,IC50,"CP66-MEL; Homo sapiens, CP66-MEL",> 16 µM
same,IC50,"NCI-H747; Homo sapiens, NCI-H747",> 16 µM
same,IC50,"KNS-81-FD; Homo sapiens, KNS-81-FD",> 16 µM
same,IC50,"LS-513; Homo sapiens, LS-513",> 16 µM
same,IC50,"CCRF-CEM; Homo sapiens, CCRF-CEM",> 16 µM
same,IC50,"RKO; Homo sapiens, RKO",1.58 µM
same,IC50,"BB65-RCC; Homo sapiens, BB65-RCC",> 16 µM
same,IC50,"EW-3; Homo sapiens, EW-3",> 16 µM
same,IC50,"OMC-1; Homo sapiens, OMC-1",> 16 µM
same,IC50,"HDLM-2; Homo sapiens, HDLM-2",> 16 µM
same,IC50,"LB373-MEL-D; Homo sapiens, LB373-MEL-D",> 16 µM
same,IC50,"DMS-79; Homo sapiens, DMS-79",> 16 µM
